Results on 1 compound are retold here after ChEMBL document CHEMBL4020831, “Discovery of GDC-0853: A Potent, Selective, and Noncovalent Bruton's Tyrosine Kinase Inhibitor in Early Clinical Development” (J Med Chem, 2018).

pIC50: −log10 of the molar value. Values after ≈ are worked out from the molar mass of the structure shown. Active and inactive are the calls of the source. No cut-off for these calls is given here.

One data set addresses ERBB4 (Homo sapiens, UniProt Q15303). The data set is described as follows: Inhibition of recombinant human cytoplasmic GST-tagged ERBB4 expressed in baculovirus at 1 uM by Z'-LYTE assay.
In another data set the test system is Salmonella typhimurium. Put plainly: Genotoxicity in Salmonella typhimurium TA100 after 48 to 72 hrs in presence of liver S9 fraction by Ames test. It is filed as toxicity. To be noted: salmonella enterica subsp. enterica serovar typhimurium. In general terms: In the Ames test, an excess of revertant colonies over the control signals mutagenicity.
The next data set has as its target T1, JAK3 (Homo sapiens, UniProt P52333).
T1 sequence (P52333 whole entry): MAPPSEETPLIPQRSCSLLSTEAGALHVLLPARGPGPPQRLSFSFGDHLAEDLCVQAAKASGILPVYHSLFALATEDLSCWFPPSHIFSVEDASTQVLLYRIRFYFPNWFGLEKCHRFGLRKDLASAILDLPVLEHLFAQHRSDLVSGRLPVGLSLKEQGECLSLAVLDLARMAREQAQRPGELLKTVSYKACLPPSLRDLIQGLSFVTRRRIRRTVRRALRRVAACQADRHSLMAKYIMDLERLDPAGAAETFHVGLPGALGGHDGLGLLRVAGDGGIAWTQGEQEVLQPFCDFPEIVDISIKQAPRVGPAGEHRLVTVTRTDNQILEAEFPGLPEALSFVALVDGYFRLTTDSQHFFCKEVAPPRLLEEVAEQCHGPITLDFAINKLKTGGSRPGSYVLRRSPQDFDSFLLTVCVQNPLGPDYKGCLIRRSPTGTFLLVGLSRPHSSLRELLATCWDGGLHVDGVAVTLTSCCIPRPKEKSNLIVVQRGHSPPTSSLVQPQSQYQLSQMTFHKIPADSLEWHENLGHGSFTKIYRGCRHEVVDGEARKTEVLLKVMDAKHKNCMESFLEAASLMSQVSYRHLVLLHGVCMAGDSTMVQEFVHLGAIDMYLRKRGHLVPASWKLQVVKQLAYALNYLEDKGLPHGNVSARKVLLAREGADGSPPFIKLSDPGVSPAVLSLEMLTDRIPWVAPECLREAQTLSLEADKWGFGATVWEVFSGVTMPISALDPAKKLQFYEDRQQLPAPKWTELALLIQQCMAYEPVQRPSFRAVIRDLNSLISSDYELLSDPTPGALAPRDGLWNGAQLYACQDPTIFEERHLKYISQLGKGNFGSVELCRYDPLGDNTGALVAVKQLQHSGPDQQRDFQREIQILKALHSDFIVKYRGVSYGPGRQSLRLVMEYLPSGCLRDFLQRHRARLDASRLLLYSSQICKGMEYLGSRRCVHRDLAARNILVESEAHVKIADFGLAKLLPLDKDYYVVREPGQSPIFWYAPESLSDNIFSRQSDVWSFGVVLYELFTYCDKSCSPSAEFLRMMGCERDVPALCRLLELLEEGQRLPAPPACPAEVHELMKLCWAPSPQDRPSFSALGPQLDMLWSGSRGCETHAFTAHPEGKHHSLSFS
The data set is described as follows: Inhibition of recombinant human catalytic GST-tagged JAK3 expressed in baculovirus at 1 uM by Z'-LYTE assay.

Data set [1] relates to Rattus norvegicus. Put plainly: Antiinflammatory activity in Lewis rat collagen-induced arthritis model assessed as reduction in ankle inflammation at 0.125 to 2 mg/kg, po administered bid for 16 days. It is filed as functional, organism-based.
For another data set, the system named is Hepatocyte. The data set is described as follows: Cytotoxicity against human primary hepatocytes assessed as reduction in cell viability. It counts as cell-based.
Data set [2] in a line: Aqueous solubility of the compound. It counts as physicochemical. Conditions: buffer.
For another data set, the target named is LTK (Homo sapiens, UniProt P29376). Put plainly: Inhibition of recombinant human cytoplasmic GST-tagged LTK expressed in baculovirus at 1 uM by Z'-LYTE assay.
LTK, sequence (P29376 whole entry): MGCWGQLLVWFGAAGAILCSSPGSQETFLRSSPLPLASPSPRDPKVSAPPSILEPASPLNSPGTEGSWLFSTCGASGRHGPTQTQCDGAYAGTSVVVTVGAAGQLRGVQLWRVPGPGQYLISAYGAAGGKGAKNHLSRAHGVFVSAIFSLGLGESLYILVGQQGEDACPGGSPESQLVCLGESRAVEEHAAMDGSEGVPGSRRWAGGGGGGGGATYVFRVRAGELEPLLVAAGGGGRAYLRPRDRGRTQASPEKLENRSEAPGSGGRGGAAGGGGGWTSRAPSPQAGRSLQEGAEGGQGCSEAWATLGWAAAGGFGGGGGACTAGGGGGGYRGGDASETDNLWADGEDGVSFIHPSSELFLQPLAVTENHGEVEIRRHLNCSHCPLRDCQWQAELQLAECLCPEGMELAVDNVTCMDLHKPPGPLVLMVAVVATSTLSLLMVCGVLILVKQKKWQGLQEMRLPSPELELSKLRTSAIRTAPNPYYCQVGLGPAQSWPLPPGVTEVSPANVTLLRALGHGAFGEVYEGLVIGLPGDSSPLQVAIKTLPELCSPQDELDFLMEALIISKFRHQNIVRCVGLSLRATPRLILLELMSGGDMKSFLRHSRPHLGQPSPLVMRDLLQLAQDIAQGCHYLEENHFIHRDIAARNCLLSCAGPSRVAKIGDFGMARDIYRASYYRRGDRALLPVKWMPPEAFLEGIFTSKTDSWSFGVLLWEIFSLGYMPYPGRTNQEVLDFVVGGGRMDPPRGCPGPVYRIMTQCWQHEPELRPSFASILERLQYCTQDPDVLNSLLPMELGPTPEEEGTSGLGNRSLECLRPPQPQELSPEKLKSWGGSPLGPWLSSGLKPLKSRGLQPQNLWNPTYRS
The nature of data set [3]: Aqueous solubility of the compound in 0.1 N HCl. It is filed as physicochemical. Conditions: buffer.
The next data set deals with Cav1.2 (Homo sapiens, UniProt Q13936). Put plainly: Inhibition of human Cav1.2 expressed in CHO cells at 1 uM incubated for 3 to 5 mins by Qpatch clamp assay. It is filed as cell-based. Conditions: CHO cells expressing human Cav1.2. In general terms: In patch-clamp work, channel activity is measured electrically.
Cav1.2, sequence (Q13936 whole entry): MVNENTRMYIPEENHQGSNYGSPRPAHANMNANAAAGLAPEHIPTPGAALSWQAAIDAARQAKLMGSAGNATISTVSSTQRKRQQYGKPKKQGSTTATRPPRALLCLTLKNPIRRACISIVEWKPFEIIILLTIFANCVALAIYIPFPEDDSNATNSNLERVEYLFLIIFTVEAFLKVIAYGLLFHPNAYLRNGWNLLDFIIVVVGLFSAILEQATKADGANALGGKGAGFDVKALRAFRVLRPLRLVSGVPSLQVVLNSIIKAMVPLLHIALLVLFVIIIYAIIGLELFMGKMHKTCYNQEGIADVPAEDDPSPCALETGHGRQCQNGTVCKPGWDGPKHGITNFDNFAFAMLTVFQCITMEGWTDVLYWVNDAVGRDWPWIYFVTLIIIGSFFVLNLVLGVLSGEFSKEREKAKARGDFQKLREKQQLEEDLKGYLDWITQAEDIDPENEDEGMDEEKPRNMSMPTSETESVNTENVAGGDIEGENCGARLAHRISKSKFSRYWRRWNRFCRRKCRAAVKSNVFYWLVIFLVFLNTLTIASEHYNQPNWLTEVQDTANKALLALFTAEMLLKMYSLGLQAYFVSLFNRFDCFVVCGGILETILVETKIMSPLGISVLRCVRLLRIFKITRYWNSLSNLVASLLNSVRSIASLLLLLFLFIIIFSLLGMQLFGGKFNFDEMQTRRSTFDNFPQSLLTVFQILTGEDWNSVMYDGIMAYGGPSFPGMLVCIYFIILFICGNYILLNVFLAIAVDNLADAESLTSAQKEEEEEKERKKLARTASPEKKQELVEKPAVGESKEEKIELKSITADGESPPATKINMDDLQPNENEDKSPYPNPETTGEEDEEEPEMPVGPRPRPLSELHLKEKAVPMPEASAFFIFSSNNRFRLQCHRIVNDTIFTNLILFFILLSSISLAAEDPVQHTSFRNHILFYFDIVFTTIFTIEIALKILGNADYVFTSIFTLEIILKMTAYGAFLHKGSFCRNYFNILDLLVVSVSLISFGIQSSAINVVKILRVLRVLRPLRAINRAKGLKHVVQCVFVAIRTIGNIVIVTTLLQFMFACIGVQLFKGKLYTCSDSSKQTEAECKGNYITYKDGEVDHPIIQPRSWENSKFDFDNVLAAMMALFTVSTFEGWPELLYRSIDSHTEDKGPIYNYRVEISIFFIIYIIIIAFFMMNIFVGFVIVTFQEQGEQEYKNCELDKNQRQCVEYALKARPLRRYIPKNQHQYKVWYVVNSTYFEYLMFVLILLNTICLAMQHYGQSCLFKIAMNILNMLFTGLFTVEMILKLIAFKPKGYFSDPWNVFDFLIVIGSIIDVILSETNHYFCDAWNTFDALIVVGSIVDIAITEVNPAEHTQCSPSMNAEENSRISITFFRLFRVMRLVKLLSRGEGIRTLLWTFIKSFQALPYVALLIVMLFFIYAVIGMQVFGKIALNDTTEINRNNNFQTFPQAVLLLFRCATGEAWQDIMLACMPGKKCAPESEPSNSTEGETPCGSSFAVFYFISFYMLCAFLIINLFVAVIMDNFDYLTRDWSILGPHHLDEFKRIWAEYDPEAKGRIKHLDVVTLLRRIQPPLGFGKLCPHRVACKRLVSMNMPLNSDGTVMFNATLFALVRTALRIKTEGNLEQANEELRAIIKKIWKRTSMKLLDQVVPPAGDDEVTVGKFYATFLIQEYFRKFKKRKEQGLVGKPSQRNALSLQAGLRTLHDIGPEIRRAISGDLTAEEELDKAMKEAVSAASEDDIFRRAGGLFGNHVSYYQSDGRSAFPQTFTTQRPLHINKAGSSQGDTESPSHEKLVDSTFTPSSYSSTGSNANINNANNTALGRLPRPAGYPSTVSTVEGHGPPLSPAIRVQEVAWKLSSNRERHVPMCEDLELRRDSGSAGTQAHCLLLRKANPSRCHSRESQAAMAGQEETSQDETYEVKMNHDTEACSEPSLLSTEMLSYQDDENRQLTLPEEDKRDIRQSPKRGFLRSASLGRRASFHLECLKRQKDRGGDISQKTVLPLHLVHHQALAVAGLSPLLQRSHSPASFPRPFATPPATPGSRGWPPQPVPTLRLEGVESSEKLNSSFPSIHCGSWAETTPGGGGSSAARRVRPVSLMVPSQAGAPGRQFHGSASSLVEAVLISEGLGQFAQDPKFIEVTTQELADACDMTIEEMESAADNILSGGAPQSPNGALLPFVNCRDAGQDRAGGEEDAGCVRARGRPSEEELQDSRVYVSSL
Data set [4] deals with Rattus norvegicus. Put plainly: Antiinflammatory activity in Lewis rat collagen-induced arthritis model assessed as reduction in ankle cartilage damage at 0.125 to 2 mg/kg, po administered bid for 16 days. It counts as functional, organism-based.
The next data set addresses Nav1.5 (Homo sapiens, UniProt Q14524). The data set is described as follows: Inhibition of human Nav1.5 expressed in CHO cells at 1 uM incubated for 3 to 5 mins by Qpatch clamp assay. It is filed as cell-based. Conditions: CHO cells expressing human Nav1.5.
Data set [5] concerns Rattus norvegicus. The data set is described as follows: Antiinflammatory activity in po dosed Lewis rat collagen-induced arthritis model assessed as reduction in ankle thickness administered bid for 16 days. It is filed as functional, organism-based.

ERBB4, sequence (Q15303 whole entry): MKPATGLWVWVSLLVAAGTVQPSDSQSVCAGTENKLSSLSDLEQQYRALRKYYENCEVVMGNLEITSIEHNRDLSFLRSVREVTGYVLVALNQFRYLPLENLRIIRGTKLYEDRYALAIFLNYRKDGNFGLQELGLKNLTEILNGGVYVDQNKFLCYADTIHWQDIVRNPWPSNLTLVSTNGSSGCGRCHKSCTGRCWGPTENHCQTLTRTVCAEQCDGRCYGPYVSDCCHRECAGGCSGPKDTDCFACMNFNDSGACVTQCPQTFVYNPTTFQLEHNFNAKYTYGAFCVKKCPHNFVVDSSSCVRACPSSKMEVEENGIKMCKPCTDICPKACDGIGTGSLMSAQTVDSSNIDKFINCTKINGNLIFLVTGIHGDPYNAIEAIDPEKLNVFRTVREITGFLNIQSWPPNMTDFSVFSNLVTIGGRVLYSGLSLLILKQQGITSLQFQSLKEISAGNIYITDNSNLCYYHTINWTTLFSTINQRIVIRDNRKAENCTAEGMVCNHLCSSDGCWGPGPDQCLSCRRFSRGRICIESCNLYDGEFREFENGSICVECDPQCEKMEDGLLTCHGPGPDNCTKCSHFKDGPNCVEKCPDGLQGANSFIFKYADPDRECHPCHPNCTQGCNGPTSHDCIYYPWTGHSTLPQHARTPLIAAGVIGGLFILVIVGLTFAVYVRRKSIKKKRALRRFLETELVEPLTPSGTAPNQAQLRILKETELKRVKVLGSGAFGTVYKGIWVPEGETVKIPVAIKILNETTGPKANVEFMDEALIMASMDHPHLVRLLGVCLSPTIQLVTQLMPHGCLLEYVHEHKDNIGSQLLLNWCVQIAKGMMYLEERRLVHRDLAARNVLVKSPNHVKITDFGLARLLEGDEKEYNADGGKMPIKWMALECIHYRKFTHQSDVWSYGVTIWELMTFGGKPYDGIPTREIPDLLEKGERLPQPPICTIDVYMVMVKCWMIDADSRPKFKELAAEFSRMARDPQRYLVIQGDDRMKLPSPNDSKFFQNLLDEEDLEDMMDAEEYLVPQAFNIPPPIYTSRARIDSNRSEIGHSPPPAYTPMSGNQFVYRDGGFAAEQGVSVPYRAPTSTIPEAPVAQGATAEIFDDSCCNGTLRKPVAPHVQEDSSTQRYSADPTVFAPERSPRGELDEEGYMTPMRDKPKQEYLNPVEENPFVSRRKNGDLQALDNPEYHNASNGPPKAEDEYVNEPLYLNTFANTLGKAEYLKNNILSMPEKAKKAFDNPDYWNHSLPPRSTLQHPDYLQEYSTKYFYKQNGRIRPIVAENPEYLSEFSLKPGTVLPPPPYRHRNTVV

What is called inhibition is the relative decrease from the control value, in per cent. Broadly, the pIC50 is −log10 of the IC50, conventionally taken in molar units. In general, solubility refers to the concentration that dissolves in the medium under given conditions. Low readings indicate a poorly soluble substance, high ones a readily soluble substance. As to `C[C@H]1CN(C2COC2)CCN1c1ccc(Nc2cc(-c3ccnc(N4CCn5c(cc6c5CC(C)(C)C6)C4=O)c3CO)cn(C)c2=O)nc1` [FENEBRUTINIB], the inhibition at 1 µM on ERBB4 is 1%; on JAK3, 5%; on LTK, -1%; against Cav1.2 it was 1.5%; at Nav1.5, 0.6%. Besides, the results for the Activity result in the data set on Salmonella typhimurium and in the data set with Rattus norvegicus [5] were “Non-Toxic” and “Dose-dependent effect”, respectively. Moreover, the outcome in the data set with Rattus norvegicus [1] and in the data set on Rattus norvegicus [4] was Active. In addition, in the data set with Hepatocyte, the pIC50 was under 3.52. In addition, the solubility in data set [2] came out at 3 µg/mL (≈ 4.51 µM); in [3] it was 35900 µg/mL (≈ 54000 µM).
